From patent publication US4771070A (Warner-Lambert Company, priority 1986, dated 1988)
In brackets after ≈: the same amount, converted by molar mass. Counter-ions that a name gives are not always drawn. Like-named read-outs stand apart in the source and are kept apart here.

Columns and labels:
[1] = assay type: physicochemical
Description: After addition of the base solution, a white suspension formed, and some material coagulated on the walls of the solution container.
The resulting solution was concentrated to a final volume of about 2 ml on a rotary evaporator and then diluted to 40 ml with water. Two-milliliter aliquots of this solution were added to each of several 6-ml vials.
The solution was concentrated in vacuo to remove methanol and diluted to 10 ml for lyophilization. The lyophilized solid is white and powdery.

[2] = test system: P388 leukemia; experiment: In vivo activity of CL-1957A against P388 leukemia in mice
[3] = test system: Ridgeway Osteogenic Sarcoma; experiment: In vivo activity of CL-1957A against Ridgeway Osteogenic Sarcoma in mice
Description: Male AKR mice were pooled, inoculated subcutaneously by trocar with 30-60 mg fragments of Ridgeway Osteogenic Sarcoma, repooled, and randomly distributed to treatment groups on Day 0.
Appropriate mice received intrapertioneal injections of the test compound dissolved in 0.9% sodium chloride solution on Days 2, 6, and 10, and then weekly thereafter. Tumors were measured on Days 24 and 35. The results are presented in Table XIII as % T/C (as defined below). % T/C values of less than 40 on Day 35 are considered active. [formula]

[4] = assay type: physicochemical; conditions: for Percent Remaining After One Week: 168 h
Description: The thin-film preparations which resulted were assayed for stability by comparing the purity of the film against a standard sample by HPLC techniques.

[5] = test system: Proteus vulgaris; experiment: Antimicrobial activity of CL-1957A, paper disc growth inhibition zone; assay type: cell-based; conditions: 16 h, PD 05062, PAS medium, read-out: Diameter of Inhibition Zone
Description: (§1) The disc and inoculated medium were incubated for 16 hours at 37° C. and the diameter of the resulting growth inhibition zone, if any, was measured.

[6] = test system: Alcaligenes viscolactis; experiment: as above; assay type: cell-based; conditions: ATCC21698, 16 h, ATCC 21698, Mycin medium, 500 μg/ml, read-out: Diameter of Inhibition Zone
Description: as §1

[7] = test system: Xanthomonas phaseoli; experiment: as above; assay type: cell-based; conditions: 16 h, PD 06002, CMA medium, read-out: Diameter of Inhibition Zone
Description: as §1

[8] = test system: Micrococcus luteus; experiment: as above; assay type: cell-based; conditions: 16 h, PD 05064, PAS medium, read-out: Diameter of Inhibition Zone
Description: as §1

[9] = test system: Branhamella catarrahalis; experiment: as above; assay type: cell-based; conditions: 16 h; PD 03596, CAP medium, 500 μg/ml; read-out: Diameter of Inhibition Zone
Description: as §1

[10] = test system: Bacillus subtilis; experiment: as above; assay type: cell-based
Description: as §1

[11] = test system: Staphylococcus aureus; experiment: as above; assay type: cell-based; conditions: 16 h, read-out: Diameter of Inhibition Zone; for zone of inhibition at 10 µg/mL: 10 μg/ml; for zone of inhibition at 500 µg/mL: 500 μg/ml; for zone of inhibition at 100 µg/mL: 100 μg/ml
Description: as §1

[12] = physchem; assay type: physicochemical
[13] = test system: B16 Melanoma; experiment: In vivo activity of CL-1957A against B16 Melanoma in mice; conditions: ratio of median life span
From the text: The activity of the compound against B16 melanoma is presented in Table XIV in terms of % T/C values which represents the ratio of median life span in days of treated mice to untreated mice, expressed as a percentage.

[14] = test system: human colon adenocarcinoma cells; experiment: Cytotoxicity of CL-1957A in vitro; assay type: cell-based; conditions: read-out: ID50 (the source's name)
From the text: (§2) The ID50 values appear in Table XII.

[15] = test system: L1210 mouse leukemia cells; experiment: Cytotoxicity of CL-1957A in vitro; assay type: cell-based; conditions: read-out: ID50 (the source's name)
From the text: as §2

With `CCC(C=CC1OC(=O)C=CC1C)=CC(C)CC=CC(C)=CC(C)C(=O)C(C)C(O)C(C)CC(C)=CC(=O)O` (stereo not drawn) [CL-1957A triethylammonium salt] the solubility in water [1] was “soluble in water”.
With `CCC(C=CC1OC(=O)C=CC1C)=CC(C)CC=CC(C)=CC(C)C(=O)C(C)C(O)C(C)CC(C)=CC(=O)O` (stereo not drawn) [CL-1957A, 19-(3,6-dihydro-3-methyl-6-oxo-2H-pyran-2-yl)-17-ethyl-6-hydroxy-3,5,7,9, 11,15-hexamethyl-8-oxo 2,10,12 16,18-nonadecapentaenoic acid] the “% T/C” value ([2]; 12.5 μg/kg/injection, Days 1-5, Test 1) was 118%, the “% T/C” value ([2]; 25 μg/kg/injection, Days 1-5, Test 1) was 127% and the “% T/C” value ([2]; 100 μg/kg/injection, Days 1-5, Test 1) was “Toxic”. The “% T/C” value ([2]; 100 μg/kg/injection, Days 1-5, Test 2) was “Toxic”, the “% T/C” value ([3]; 0.125 mg/kg/injection i.p. Days 2, 6, 10, then weekly, Day 24) was 14% and the “% T/C” value ([3]; 0.125 mg/kg/injection i.p. Days 2, 6, 10, then weekly, Day 35, less than 40 considered active) was 22%. The “% T/C” value ([3]; 0.25 mg/kg/injection i.p. Days 2, 6, 10, then weekly, Day 24) was 15%, the “% T/C” value ([3]; 0.25 mg/kg/injection i.p. Days 2, 6, 10, then weekly, Day 35, less than 40 considered active) was 9% and the “% T/C” value ([3]; 0.50 mg/kg/injection i.p. Days 2, 6, 10, then weekly, Day 24) was 0%. For the same compound, the “% T/C” value ([3]; 0.50 mg/kg/injection i.p. Days 2, 6, 10, then weekly, Day 35, less than 40 considered active) was 0%, the “stability of ascorbate-containing thin-film preparation” value [4] was “began to show some decomposition” and the “stability of solid preparations of the pure compound” value [4] was “insufficiently stable for pharmaceutical use”. The “stability of thin-film preparations” value [4] was “not stable for periods of even one week”, the “Percent Remaining After One Week” value ([4]; solid cake from 1,1-dimethylethanol) was 56% and the “Percent Remaining After One Week” value ([4]; thin film from 95% ethanol) was 40%. For the same compound, the “Percent Remaining After One Week” value ([4]; thin film from abs. ethanol) was 60%, the zone of inhibition at 10 µg/mL ([5]; 10 μg/ml) was 0 mm and the zone of inhibition at 100 µg/mL ([5]; 100 μg/ml) was 0 mm. For the same compound, the zone of inhibition at 500 µg/mL ([5]; 500 μg/ml) was 0 mm, the zone of inhibition at 500 µg/mL [6] was 19 mm and the zone of inhibition at 10 µg/mL ([7]; 10 μg/ml) was 0 mm. It also gave a zone of inhibition at 100 µg/mL ([7]; 100 μg/ml) of 0 mm, a zone of inhibition at 500 µg/mL ([7]; 500 μg/ml) of 0 mm and a zone of inhibition at 10 µg/mL ([8]; 10 μg/ml) of 0 mm. It also gave a zone of inhibition at 100 µg/mL ([8]; 100 μg/ml) of 0 mm, a zone of inhibition at 500 µg/mL [9] of 30 mm and a zone of inhibition at 10 µg/mL ([10]; 16 h, PD 04969, #169 medium, 10 μg/ml, read-out: Diameter of Inhibition Zone) of 0 mm. For the same compound, the zone of inhibition at 100 µg/mL ([10]; ATCC6633, 16 h, read-out: Diameter of Inhibition Zone, ATCC 6633, #169 medium, 100 μg/ml) was 16 mm, the zone of inhibition at 10 µg/mL ([10]; ATCC6633, 16 h, read-out: Diameter of Inhibition Zone, ATCC 6633, Mycin medium, 10 μg/ml) was 0 mm and the zone of inhibition at 100 µg/mL ([10]; ATCC6633, 16 h, read-out: Diameter of Inhibition Zone, ATCC 6633, Mycin medium, 100 μg/ml) was 0 mm. It also gave a zone of inhibition at 10 µg/mL ([11]; PD 02482, PAS medium) of 0 mm, a zone of inhibition at 500 µg/mL ([11]; PD 02482, PAS medium) of 16 mm and a zone of inhibition at 10 µg/mL ([11]; PD 5045, AM-9 medium) of 0 mm. The zone of inhibition at 100 µg/mL ([11]; PD 5045, AM-9 medium) was 17 mm, the zone of inhibition at 500 µg/mL ([11]; PD 5045, AM-9 medium) was 22 mm and the zone of inhibition at 10 µg/mL ([11]; PD 5045, AM-10 medium) was 0 mm. The zone of inhibition at 100 µg/mL ([11]; PD 5045, AM-10 medium) was 19 mm, the zone of inhibition at 500 µg/mL ([11]; PD 5045, AM-10 medium) was 22 mm and the remaining at 730 h ([12]; 95% ethanol) was 100%. It also gave a remaining at 3650 h ([12]; 95% ethanol) of 100%, a remaining at 3650 h ([12]; abs. ethanol) of 100% and a remaining at 730 h ([12]; absolute ethanol) of 100%. It also gave a remaining at 730 h ([12]; dimethylacetamide) of 95%, a remaining at 730 h ([12]; dimethylsulfoxide) of 93% and a remaining at 730 h ([12]; propylene glycol) of 100%. For the same compound, the remaining at 3650 h ([12]; propylene glycol) was 100%, the “% T/C” value ([13]; 0.075 mg/kg/injection i.p. Days 1, 5, 9) was 201% and the “% T/C” value ([13]; 0.60 mg/kg/injection i.p. Days 1, 5, 9) was “Toxic”. For the same compound, the IC50 [14] was 0.02 ng/mL (≈ 0.037 nM) and the IC50 [15] was 0.118 ng/mL (≈ 0.218 nM).
In the case of `CCC(C=CC1OC(=O)C=CC1C)=CC(C)CC=CC(C)=CC(C)C(=O)C(C)C(O)C(C)CC(C)=CC(=O)O` [N-methyl-D-glucamine salt], the solubility in water [1] is reported as “soluble in water”.
With `CCC(C=CC1OC(=O)C=CC1C)=CC(C)CC=CC(C)=CC(C)C(=O)C(C)C(O)C(C)CC(C)=CC(=O)O` (stereo not drawn) [calcium salt of CL-1957A] the solubility in ethanol [1] was “soluble in ethanol” and the solubility in water [1] was “insoluble in water”.
